PubChem BioAssay AID328 (DTP/NCI, 2004)
“And” between values parts separate entries of the source, which are not always exact repeats. Equal values may be shown once. Inconclusive results and toxic doses are left out. How the source made its calls: active means survival T/C of 150% or more; inactive means T/C below 125% in these data.

System: BDF1 mice, P388 leukemia ip, median survival T/C
Experiment: NCI In Vivo Anticancer Drug Screen. Data for tumor model P388 Leukemia (intraperitoneal) in B6D2F1 (BDF1) mice
Conditions: endpoint: median survival time, higher = longer survival
In short: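 Steps: implant the tumour, treat one group with compound and another with vehicle, record survival, then divide treated by control.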

[1] = dose: 50.0 mg/kg/injection, schedule: Q01DX009 (ip), vehicle: saline with Tween-80
[2] = dose: 100.0 mg/kg/injection, schedule: Q01DX009 (ip), vehicle: saline with Tween-80
[3] = dose: 100.0 mg/kg/injection, schedule: Q04DX003 (ip), vehicle: saline with Tween-80
[4] = dose: 400.0 mg/kg/injection, schedule: Q04DX003 (ip), vehicle: saline with Tween-80
[5] = dose: 200.0 mg/kg/injection, schedule: Q01DX009 (ip), vehicle: saline with Tween-80
[6] = dose: 200.0 mg/kg/injection, schedule: Q04DX003 (ip), vehicle: saline with Tween-80
[7] = dose: 200.0 mg/kg/injection, schedule: Q04DX003 (ip), vehicle: water
[8] = dose: 400.0 mg/kg/injection, schedule: Q04DX003 (ip), vehicle: water
[9] = dose: 100.0 mg/kg/injection, schedule: Q04DX003 (ip), vehicle: Klucel (hydroxypropylcellulose) (HPC)
[10] = dose: 200.0 mg/kg/injection, schedule: Q04DX003 (ip), vehicle: Klucel (hydroxypropylcellulose) (HPC)
[11] = dose: 400.0 mg/kg/injection, schedule: Q04DX003 (ip), vehicle: Klucel (hydroxypropylcellulose) (HPC)

Measured: T/C

COc1cc2cc(c1Cl)NC(=O)/C=C/[C@]1(C)O[C@H]1[C@H](C)[C@@H]1C[C@@](O)(NC(=O)O1)[C@H](OC)C=C/C=C(\C)C2
inactive: dose: 0.2 micrograms/kg/injection, schedule: Q01DX009 (ip), vehicle: saline + alcohol 100 % of control | dose: 0.4 micrograms/kg/injection, schedule: Q01DX009 (ip), vehicle: saline + alcohol 100 % of control | dose: 0.8 micrograms/kg/injection, schedule: Q01DX009 (ip), vehicle: saline + alcohol 90 % of control | dose: 1.6 micrograms/kg/injection, schedule: Q01DX009 (ip), vehicle: saline + alcohol 100 % of control | dose: 3.1 micrograms/kg/injection, schedule: Q01DX009 (ip), vehicle: saline + alcohol 115 % of control | dose: 6.2 micrograms/kg/injection, schedule: Q01DX009 (ip), vehicle: saline + alcohol 115 % of control | dose: 12.5 micrograms/kg/injection, schedule: Q01DX009 (ip), vehicle: saline + alcohol 87 % of control and 110 % of control | dose: 25.0 micrograms/kg/injection, schedule: Q01DX009 (ip), vehicle: saline + alcohol 87 % of control and 110 % of control | dose: 50.0 micrograms/kg/injection, schedule: Q01DX009 (ip), vehicle: saline + alcohol 91 % of control and 110 % of control | dose: 100.0 micrograms/kg/injection, schedule: Q01DX009 (ip), vehicle: saline + alcohol 91 % of control and 95 % of control

CC(C)C(C=O)C(O)(C(F)(F)F)C(F)(F)Cl (configuration not stated)
inactive: dose: 12.5 mg/kg/injection, schedule: Q01DX009 (ip), vehicle: saline 95 % of control | dose: 25.0 mg/kg/injection, schedule: Q01DX009 (ip), vehicle: saline 100 % of control

ClCCn1cnc2c(SCc3ccccc3Cl)ncnc21
inactive: dose: 25.0 mg/kg/injection, schedule: Q01DX009 (ip), vehicle: saline with Tween-80 100 % of control | [1] 91 % of control | [2] 108 % of control | [3] 100 % of control | [4] 112 % of control

O=C(NCCCl)N(CCCl)C(=O)Oc1c(Cl)cc(Cl)cc1Cl
inactive: dose: 50.0 mg/kg/injection, schedule: Q01DX005 (ip), vehicle: saline with Tween-80 100 % of control | dose: 100.0 mg/kg/injection, schedule: Q01DX005 (ip), vehicle: saline with Tween-80 112 % of control | dose: 200.0 mg/kg/injection, schedule: Q01DX005 (ip), vehicle: saline with Tween-80 100 % of control

Nc1nc(SN=Nc2ccc(S(N)(=O)=O)cc2)c2[nH]cnc2n1
inactive: dose: 3.75 mg/kg/injection, schedule: Q01DX009 (ip), vehicle: saline with Tween-80 120 % of control | dose: 7.5 mg/kg/injection, schedule: Q01DX009 (ip), vehicle: saline with Tween-80 104 % of control | dose: 15.0 mg/kg/injection, schedule: Q01DX009 (ip), vehicle: saline with Tween-80 91 % of control

O=C(Nc1ccc([N+](=O)[O-])cc1)Nc1ccc([N+](=O)[O-])cc1
inactive: dose: 50.0 mg/kg/injection, schedule: Q04DX003 (ip), vehicle: saline sonified 86 % of control | dose: 100.0 mg/kg/injection, schedule: Q04DX003 (ip), vehicle: saline sonified 86 % of control | dose: 200.0 mg/kg/injection, schedule: Q04DX003 (ip), vehicle: saline sonified 90 % of control

Cc1ccc2c(c1)Oc1ccccc1N=C2
inactive: [1] 97 % of control | [2] 103 % of control | [5] 97 % of control

COc1cccc2c1C13CC(C)CC(C2)C1CCC(=O)N3 (configuration not stated)
inactive: dose: 75.0 mg/kg/injection, schedule: Q04DX003 (ip), vehicle: saline 100 % of control | dose: 150.0 mg/kg/injection, schedule: Q04DX003 (ip), vehicle: saline 105 % of control | dose: 300.0 mg/kg/injection, schedule: Q04DX003 (ip), vehicle: saline 116 % of control

CC(=O)c1ccc(NC(=O)C(F)(F)F)cc1
inactive: dose: 50.0 mg/kg/injection, schedule: Q04DX003 (ip), vehicle: saline with Tween-80 111 % of control | [3] 96 % of control | [6] 103 % of control | [4] 103 % of control

O=C(Cc1ccccc1)Cc1ccccc1
inactive: dose: 25.0 mg/kg/injection, schedule: Q01DX009 (ip), vehicle: water 99 % of control | dose: 50.0 mg/kg/injection, schedule: Q01DX009 (ip), vehicle: water 99 % of control | dose: 100.0 mg/kg/injection, schedule: Q01DX009 (ip), vehicle: water 90 % of control | dose: 200.0 mg/kg/injection, schedule: Q01DX009 (ip), vehicle: water 97 % of control | [7] 97 % of control and 100 % of control | dose: 300.0 mg/kg/injection, schedule: Q04DX003 (ip), vehicle: water 89 % of control and 97 % of control | dose: 400.0 mg/kg/injection, schedule: Q01DX009 (ip), vehicle: water 109 % of control | [8] 93 % of control and 100 % of control | dose: 500.0 mg/kg/injection, schedule: Q04DX003 (ip), vehicle: water 108 % of control | dose: 600.0 mg/kg/injection, schedule: Q04DX003 (ip), vehicle: water 98 % of control

O=C(CC(c1ccccc1)c1ccccc1)c1ccccc1
inactive: dose: 100.0 mg/kg/injection, schedule: Q01DX009 (ip), vehicle: Klucel (hydroxypropylcellulose) (HPC) 108 % of control | [9] 120 % of control | dose: 200.0 mg/kg/injection, schedule: Q01DX009 (ip), vehicle: Klucel (hydroxypropylcellulose) (HPC) 108 % of control | [10] 110 % of control | dose: 400.0 mg/kg/injection, schedule: Q01DX009 (ip), vehicle: Klucel (hydroxypropylcellulose) (HPC) 91 % of control | [11] 120 % of control

CC1=CC(c2ccc3c(c2)OCO3)c2c(c3ccccc3oc2=O)O1 (configuration not stated)
inactive: dose: 12.5 mg/kg/injection, schedule: Q01DX009 (ip), vehicle: water 107 % of control | dose: 100.0 mg/kg/injection, schedule: Q04DX003 (ip), vehicle: water 104 % of control | [7] 98 % of control | [8] 90 % of control

CCN(C)c1nc(N(C)CC)c2nc(N(C)CC)nc(N(C)CC)c2n1
inactive: dose: 3.13 mg/kg/injection, schedule: Q01DX009 (ip), vehicle: Klucel (hydroxypropylcellulose) (HPC) 108 % of control | dose: 6.25 mg/kg/injection, schedule: Q01DX009 (ip), vehicle: Klucel (hydroxypropylcellulose) (HPC) 99 % of control | dose: 12.5 mg/kg/injection, schedule: Q01DX009 (ip), vehicle: Klucel (hydroxypropylcellulose) (HPC) 99 % of control | dose: 25.0 mg/kg/injection, schedule: Q01DX009 (ip), vehicle: Klucel (hydroxypropylcellulose) (HPC) 106 % of control

C/C(=N/N(C)C)c1ccccn1
inactive: [2] 103 % of control | [3] 104 % of control | [5] 100 % of control | [6] 100 % of control | [4] 100 % of control

COc1ccc(CNCCc2ccc(O)c(OC)c2)cc1O
inactive: [1] 100 % of control | [2] 102 % of control | [5] 107 % of control

CCCCCCCCCCCCOP(N)(=O)OCCCCCCCCCCCC
inactive: dose: 10.0 mg/kg/injection, schedule: Q01DX009 (ip), vehicle: Klucel (hydroxypropylcellulose) (HPC) 103 % of control | dose: 20.0 mg/kg/injection, schedule: Q01DX009 (ip), vehicle: Klucel (hydroxypropylcellulose) (HPC) 106 % of control | dose: 40.0 mg/kg/injection, schedule: Q01DX009 (ip), vehicle: Klucel (hydroxypropylcellulose) (HPC) 106 % of control | [1] 109 % of control | [2] 113 % of control | [9] 105 % of control | [3] 109 % of control | [10] 97 % of control | [6] 109 % of control | [11] 121 % of control

C[C@]12CC[C@H]3[C@@H](CC[C@@H]4C[C@@H](O)CC[C@@]43C=O)[C@]13O[C@@H]3CC2c1ccc(=O)oc1 (some centres not stated)
inactive: dose: 0.25 mg/kg/injection, schedule: Q01DX009 (ip), vehicle: Klucel (hydroxypropylcellulose) (HPC) 100 % of control | dose: 0.5 mg/kg/injection, schedule: Q01DX009 (ip), vehicle: Klucel (hydroxypropylcellulose) (HPC) 98 % of control | dose: 1.0 mg/kg/injection, schedule: Q01DX009 (ip), vehicle: Klucel (hydroxypropylcellulose) (HPC) 98 % of control | dose: 2.0 mg/kg/injection, schedule: Q01DX009 (ip), vehicle: Klucel (hydroxypropylcellulose) (HPC) 100 % of control
